Assay results from patent EP0685467A1, “NOVEL PYRIMIDINE DERIVATIVE AND MEDICINAL COMPOSITION” (NKK CORPORATION, priority 1993, dated 1995).

Legend:
rat aorta = experiment: Inhibitory activity of vasoconstriction: angiotensin II induced constriction of rat aorta rings (Magnus apparatus); type: cell-based; settings: constriction induced by 3 x 10⁻⁸ angiotensin II
Procedure: The applicability of the compound of the present invention was confirmed by the function to inhibit constriction of rat aorta induced by angiotensin II.
Stetharteries of Wistar male rats having body weights of 150 to 250 g (Japan Charles River Inc.) were excised. After the attached connective tissue was removed, the cavities of the veins were rubbed by yarn to remove the endothelial cells and prepare ring samples. The samples were suspended in a 5ml organ bath which was filled with Krebs-Henseleit solution (unit mM; NaCl = 118, KCl = 4.7, CaCl₂ = 2.55, MgSO₄ = 1.18, KH₂PO₄ = 1.18, NaHCO₃ = 24.88, glucose = 11.1) and held at 37°C and bubbled with 95% O₂-5% CO₂. After an initial tension of 1.5 g was applied and preincubation was carried out for 60 minutes, the compounds to be tested (3 x 10⁻⁸ or 1 x 10⁻⁸) were administered. After 15 minutes, 3 x 10⁻⁸ angiotensin II was accumulatively added and the reaction of constriction was measured. The rate of inhibition was evaluated by comparing the reaction of constriction, which had been previously measured, in the case of administration of 3 x 10⁻⁸ angiotensin II in the absence of the compounds to be tested.
The constriction of the samples was ionotropicaly measured using an isometric transducer (UL-10GR: Minebea) and amplifier (6M92: NEC SANEI) and recorded by a recticorder (RECTI-HORIZ-8K: NEC SANEI).

ICR male mice = experiment: Toxicity Example: intraperitoneal administration to mice; type: in vivo; settings: intraperitoneally, 500 mg/kg, 4- to 5-week-old ICR male mice
Procedure: The compounds of Examples 3, 19, 20, or 23 were intraperitoneally administered to 4- to 5-week-old ICR male mice in an amount of 500 mg/kg.

ICR male and female mice = experiment: Toxicity Example: oral administration to mice; type: in vivo; settings: orally, 1000 mg/kg, 6-week-old ICR male and female mice
Procedure: The compounds of Examples 15, 19, or 47 were orally administered to 6-week-old ICR male and female mice in an amount of 1000 mg/kg.

| Compound | Rate of inhibition (%) (rat aorta; compound 1 x 10⁻⁸ M) | Rate of inhibition (%) (rat aorta; compound 3 x 10⁻⁸ M) | deaths (ICR male mice) | deaths (ICR male and female mice) |
| --- | --- | --- | --- | --- |
| CCCCc1nc(C)cc(=O)n1Cc1ccc(-c2ccccc2-c2nnn[nH]2)cc1 [Comparative compound A, 2-butyl-6-methyl-3-[2'-(1H-tetrazol-5-yl)biphenyl-4-yl]methylpyrimidin-4-one, reference compound] | 8 | 37 |  |  |
| CCCCc1nc(C)c(Cc2ccccc2)c(=O)n1Cc1ccc(-c2ccccc2-c2nnn[nH]2)cc1 [Comparative compound B, 5-benzyl-2-butyl-6-methyl-3-[2'-(1H-tetrazol-5-yl)biphenyl-4-yl]methylpyrimidin-4-one, reference compound] | 5 | 32 |  |  |
| CCCc1nc(C)c(Cc2ccc(CO)cc2)c(=O)n1Cc1ccc(-c2ccccc2-c2nnn[nH]2)cc1 [Example 3, 5-(4-hydroxymethylbenzyl)-6-methyl-2-propyl-3-[2'-(1H-tetrazol-5-yl)biphenyl-4-yl]methylpyrimidin-4-one] | 78 | 98 | No deaths were observed |  |
| CCCc1nc(C)c(Cc2ccc(COC)cc2)c(=O)n1Cc1ccc(-c2ccccc2-c2nnn[nH]2)cc1 [Example 4, 5-(4-methoxymethylbenzyl)-6-methyl-2-propyl-3-[2'-(1H-tetrazol-5-yl)biphenyl-4-yl]methylpyrimidin-4-one] | 36 | 94 |  |  |
| CCc1nc(C)c(Cc2cccc(CO)c2)c(OCc2ccc(-c3ccccc3-c3nnn[nH]3)cc2)n1 [Example 15, 2-ethyl-5-(3-hydroxymethylbenzyl)-6-methyl-4-[2'-(1H-tetrazol-5-yl)biphenyl-4-yl]methoxypyrimidine] |  |  |  | No deaths were observed |
| CCCc1nc(C)c(Cc2cccc(CO)c2)c(=O)n1Cc1ccc(-c2ccccc2-c2nnn[nH]2)cc1 [Example 19, 5-(3-hydroxymethylbenzyl)-6-methyl-2-propyl-3-[2'-(1H-tetrazol-5-yl)biphenyl-4-yl]methylpyrimidin-4-one] | 100 | 100 | No deaths were observed | No deaths were observed |
| CCCc1nc(C)c(Cc2cccc(COC)c2)c(=O)n1Cc1ccc(-c2ccccc2-c2nnn[nH]2)cc1 [Example 20, 5-(3-methoxymethylbenzyl)-6-methyl-2-propyl-3-[2'-(1H-tetrazol-5-yl)biphenyl-4-yl]methylpyrimidin-4-one] | 100 | 100 | No deaths were observed |  |
| CCCCc1nc(C)c(Cc2cccc(CO)c2)c(=O)n1Cc1ccc(-c2ccccc2-c2nnn[nH]2)cc1 [Example 23, 2-butyl-5-(3-hydroxymethylbenzyl)-6-methyl-3-[2'-(1H-tetrazol-5-yl)biphenyl-4-yl]methylpyrimidin-4-one] | 95 | 100 | No deaths were observed |  |
| CCc1nc(C)nc(OCc2ccc(-c3ccccc3-c3nnn[nH]3)cc2)c1Cc1cccc(CO)c1 [Example 47, 6-ethyl-5-(3-hydroxymethylbenzyl)-2-methyl-4-[2'-(1H-tetrazol-5-yl)biphenyl-4-yl]methoxypyrimidine] |  |  |  | No deaths were observed |
